What all share (assay type): in vivo
The subject of assay [1] is Cotton. In words: Selective post-emergent greenhouse test, Cotton (crop injury). The note with it: Gossypium hirsutum, post-emergence, 336 h, post-emergent, 2 weeks, crop, read-out: % Control Cotton; for plant injury at 358.672 g/ha: 0.32 lbs/acre; for plant injury at 706.135 g/ha: 0.63 lbs/acre. From the text: (§1) So as to illustrate clearly the phytotoxic properties of the various active ingredients of the present invention, a group of controlled greenhouse experiments is described below.
(§2) Various species of plants, both broadleaf weeds and valuable crops, were planted in beds of good agricultural soil in a greenhouse. After the plants had emerged and grown to a height of about 2-6 inches, a portion of the plants were sprayed with an aqueous mixture, made by mixing a selected active ingredient and emulsifier or dispersant with water to provide solution containing 250 or 125 ppm active ingredient, employing sufficient amounts of the treating composition to provide low post emergent application rates of about 0.63 or 0.32 pounds per acre. Other portions of the plants were left untreated to serve as controls. In each test the active ingredient was a 3-methylethyl-1H-2,1,3-benzothiadiazin-4(3H)-one-2,2-dioxide having a substituent in the one position according to the invention.
(§3) After a period of 2 weeks the selective effect of the test ingredient on the plants was evaluated by a comparison with the control group of plants.

For assay [2], the system named is Velvet Leaf. In words: General post-emergent herbicidal activity at 10 lbs/acre, Velvet Leaf. The note with it: post-emergence, 336 h.
Source text: (§4) Various species of plants, both broadleaf weeds and valuable crops, were planted in beds of good agricultural soil in a greenhouse. After the plants had emerged and grown to a height of about 2-6 inches, a portion of the plants were sprayed with an aqueous mixture, made by mixing a selected active ingredient and […], […] Other portions of the plants were left untreated to serve as controls. In each test the active ingredient was a 3-methylethyl-1H-2,1,3-benzothiadiazin-4(3H)-one-2,2-dioxide having a substituent in the one position according to the invention.
as §3

Assay [3] concerns Soybean. In words: Selective post-emergent greenhouse test, Soybean (crop injury). Particulars: Glycine max, post-emergence, 336 h, 2 weeks, read-out: % Control Soybean; for plant injury at 358.672 g/ha: 0.32 lbs/acre; for plant injury at 706.135 g/ha: 0.63 lbs/acre.
Source text: as §1, §2, §3

For assay [4], the system named is Annual Morning Glory. In words: General post-emergent herbicidal activity at 10 lbs/acre, Annual Morning Glory. The note with it: Ipomoea, post-emergence, 336 h.
Source text: as §4, §3

In assay [5] the test system is Pig Weed. In words: General post-emergent herbicidal activity at 10 lbs/acre, Pig Weed. Particulars: post-emergence, 336 h.
Source text: as §4, §3

For assay [6], the system named is Velvet Leaf. In words: Selective post-emergent greenhouse test, Velvet Leaf. Particulars: post-emergence, 336 h, 2 weeks; for pest or weed control at 358.672 g/ha: 0.32 lbs/acre; for pest or weed control at 706.135 g/ha: 0.63 lbs/acre.
Source text: as §1, §2, §3

Assay [7] relates to Nutsedge. In words: General post-emergent herbicidal activity at 10 lbs/acre, Nutsedge. Particulars: Cyperus, post-emergence, 336 h.
Source text: as §4, §3

Assay [8] relates to Jimson Weed. In words: Selective post-emergent greenhouse test, Jimson Weed. The note with it: post-emergence, 336 h, 2 weeks; for pest or weed control at 358.672 g/ha: 0.32 lbs/acre; for pest or weed control at 706.135 g/ha: 0.63 lbs/acre.
Source text: as §1, §2, §3

A word on the pest or weed control: it is how far the test organism was held down. Read a low pest or weed control as weak suppression. For `CC(C)N1C(=O)c2ccccc2N(C(=O)CCl)S1(=O)=O` [COCH2 Cl, 1-(2-Chloroacetyl)-3-(1-methylethyl)-1H-2,1,3-benzothiadiazin-4(3H)-one-2,2-Dioxide], the plant injury at 358.672 g/ha in assay [1] was found to be 20%; in assay [3] it was 10%. Also, the plant injury at 706.135 g/ha in assay [1] was determined as 70%; in assay [3], 10%. Besides, the pest or weed control at 11208.5 g/ha in assay [2], in assay [4], in assay [5] and in assay [7] was 100% each time. In addition, the pest or weed control at 358.672 g/ha in assay [6] was 70%; in assay [8] it was 100%. For the same molecule, the pest or weed control at 706.135 g/ha in assay [6] and in assay [8] was 100% in each case.
Consider `COCC(=O)N1c2ccccc2C(=O)N(C(C)C)S1(=O)=O` [COCH2 OCH3, 1H-2,1,3-Benzothiadiazin-4(3H)-one: 1-methoxyacetyl-3-(1-methylethyl)-; 2,2-dioxide], for which the plant injury at 358.672 g/ha in assay [1] and in assay [3] was 0% throughout. Moreover, the plant injury at 706.135 g/ha in assay [1] and in assay [3] was 0% each time. For the same molecule, the pest or weed control at 11208.5 g/ha in assay [2] came to 100%; in assay [4] it was 100%; in assay [5] it was 100%; in assay [7], 90%. For the same molecule, the figures for the pest or weed control at 358.672 g/ha in assay [6] and in assay [8] were 80% and 100%, respectively. The pest or weed control at 706.135 g/ha in assay [6] and in assay [8] was 100% in each case.
Regarding `CC(=O)N1c2ccccc2C(=O)N(C(C)C)S1(=O)=O` [COCH3, 1H-2,1,3-Benzothiadiazin-4(3H)-one: 1-acetyl-3-(1-methyl-ethyl)-; 2,2-dioxide], the plant injury at 358.672 g/ha worked out at 5% in assay [1] and 0% in assay [3]. For the same molecule, the plant injury at 706.135 g/ha in assay [1] and in assay [3] was 0% each time. The pest or weed control at 11208.5 g/ha in assay [2] worked out at 100%; in assay [4], 100%; in assay [5] it was 100%; in assay [7], 95%. For the same molecule, the pest or weed control at 358.672 g/ha in assay [6] amounted to 100%; in assay [8], 60%. The pest or weed control at 706.135 g/ha in assay [6] stood at 100%; in assay [8], 60%.
Turning to `CC=CC(=O)N1c2ccccc2C(=O)N(C(C)C)S1(=O)=O` [COCHCHCH3, 1H-2,1,3-Benzothiadiazin-4(3H)-one: 3-(1-methylethyl)-1-(1-oxo-2-butenyl)-;2,2-dioxide], the plant injury at 358.672 g/ha in assay [1] and in assay [3] was 0% each time. Moreover, the plant injury at 706.135 g/ha in assay [1] and in assay [3] was 0% in each case. In addition, the pest or weed control at 11208.5 g/ha is 100% in assay [2], 100% in assay [4], 100% in assay [5] and 90% in assay [7]. This molecule showed a pest or weed control at 358.672 g/ha in assay [6] of 70%. Moreover, the pest or weed control at 706.135 g/ha in assay [6] and in assay [8] was 100% each time.
On to `CSC(=O)N1c2ccccc2C(=O)N(C(C)C)S1(=O)=O` [COSCH3, 1H-2,1,3-Benzothiadiazin-1-carbothioic acid: 3,4-Dihydro-3-(1-methylethyl)-4-oxo-, S-methyl ester; 2,2-Dioxide], for which the plant injury at 358.672 g/ha in assay [1] amounted to 90%; in assay [3] it was 0%. Moreover, the plant injury at 706.135 g/ha in assay [1] is 100%; in assay [3], 0%. Moreover, the pest or weed control at 11208.5 g/ha in assay [2] is 100%; in assay [4] it was 100%; in assay [5] it was 100%; in assay [7] it was 85%. Besides, the pest or weed control at 358.672 g/ha in assay [6] amounted to 90%; in assay [8], 100%. Moreover, the pest or weed control at 706.135 g/ha in assay [6] and in assay [8] was 100% throughout.
Take `CCSC(=O)N1c2ccccc2C(=O)N(C(C)C)S1(=O)=O` [COSCH2 CH3, 1H-2,1,3-Benzothiadiazine-1-carbothioic acid: 3,4-Dihydro-3-(1-methylethyl)-4-oxo, S-ethyl ester; 2,2-dioxide]: the plant injury at 358.672 g/ha in assay [1] came out at 100%; in assay [3], 0%. For the same molecule, the plant injury at 706.135 g/ha is 100% in assay [1] and 0% in assay [3]. The pest or weed control at 11208.5 g/ha in assay [2] worked out at 100%; in assay [4], 100%; in assay [5] it was 100%; in assay [7], 95%. Moreover, the pest or weed control at 358.672 g/ha in assay [6] and in assay [8] was 100% each time. Moreover, the pest or weed control at 706.135 g/ha in assay [6] and in assay [8] was 100% each time.
For the molecule `COC(=O)N1c2ccccc2C(=O)N(C(C)C)S1(=O)=O` [CO2 CH3], the plant injury at 358.672 g/ha in assay [1] and in assay [3] was 0% each time. Further, the plant injury at 706.135 g/ha in assay [1] came out at 10%; in assay [3] it was 0%. For the same molecule, the pest or weed control at 11208.5 g/ha in assay [2] was found to be 100%; in assay [4], 100%; in assay [5], 100%; in assay [7], 50%. Moreover, the pest or weed control at 358.672 g/ha in assay [6] and in assay [8] was 100% in each case. The pest or weed control at 706.135 g/ha in assay [6] and in assay [8] was 100% each time.

The values are drawn from patent US4208514A, “4(3H)-Oxobenzo-2,1,3-thiadiazine-2,2-dioxides” (The Dow Chemical Company, priority 1976, dated 1980).
